Legend:
[1] = system: lung carcinoma A549 cells; assay: SRB assay; format: cell-based; details: Homo sapiens, 48 hr
[2] = system: Human gastric adenocarcinoma AGS cells; assay: SRB assay; format: cell-based; details: 48 hr
[3] = system: Human hepatoblastoma HepG2 cells; assay: SRB assay; format: cell-based; details: 48 hr
[4] = system: Human colorectal adenocarcinoma HT-29 cells; assay: SRB assay; format: cell-based; details: 48 hr
[5] = system: Human breast carcinoma MCF-7 cells; assay: SRB assay; format: cell-based; details: MCF7, 48 hr
[6] = system: Human breast carcinoma MCF-7 cells; assay: SRB assay; format: cell-based; details: MCF7, 48 hr; remark: listed apart in the source
Procedure: (§1) Human Bladder Cancer TSGH cells, Human hepatoblastoma HepG2 cells, Human colorectal adenocarcinoma HT-29 cells, human nasopharyngeal carcinoma KB cells, Human gastric adenocarcinoma AGS cells, Human breast carcinoma MCF-7 cells, lung carcinoma A549 cells, and Human prostate carcinoma PC-3 cells were used in the preliminary cytotoxicity assays of the benzenesulfonamide derivatives of the present invention, and the inhibition activity against the tumor cells was evaluated.
(§2) All cell lines were maintained in RPMI 1640 supplied with 10% fetal bovine serum into 96-well microtiter plates and maintained in a humidified chamber at 37° C. containing 5% CO2. After 24 hr, cell lines in partial wells were fixed in situ with 10% trichloroacetic acid (TCA) to represent a measurement at the time of drug addition (T0). Then, cell lines in other wells were incubated with the benzenesulfonamide derivatives of the present invention for an additional 48 hr, and fixed in situ with 10% TCA to represent a measurement at the time of stopping reaction (Tx). After rinsing the plates with PBS and air-drying, 0.4% sulforhodamine B solution (weight per volume in 1% acetic acid) was added to each well and the plates were incubated for 10 min at room temperature. Unbound sulforhodamine B was removed with 1% acetic acid and the plates were air-dried. Cells bound with sulforhodamine B was subsequently solubilized with 10 mM Tris base (Trizma; Sigma). Cell proliferation was determined by measuring the optical density at 515 nm using a Thermomax microplate reader (Molecular Devices, Sunnyvale, Calif.). The half-inhibition concention (GI50) of the benzenesulfonamide derivatives of the present invention was obtained from the detected optical density.

[7] = system: Human colorectal adenocarcinoma HT-29 cells; assay: SRB assay; format: cell-based; details: 48 hr; remark: listed apart in the source
Procedure: as §1, §2

[8] = system: Human prostate carcinoma PC-3 cells; assay: SRB assay; format: cell-based; details: Homo sapiens; for GI50: PC-3, 48 h; for IC50: PC-3, 48 hr
Procedure: as §1, §2

[9] = system: Human hepatoblastoma HepG2 cells; assay: SRB assay; format: cell-based; details: 48 hr; remark: listed apart in the source
Procedure: as §1, §2

[10] = system: Human gastric adenocarcinoma AGS cells; assay: SRB assay; format: cell-based; details: 48 hr; remark: listed apart in the source
Procedure: as §1, §2

[11] = system: lung carcinoma A549 cells; assay: SRB assay; format: cell-based; details: Homo sapiens, 48 hr; remark: listed apart in the source
Procedure: as §1, §2

[12] = system: Human colorectal adenocarcinoma HT-29 cells; assay: MTT assay; format: cell-based; details: 72 hr
Procedure: as §1
(§3) All cell lines were maintained in RPMI 1640 supplied with 10% fetal bovine serum and maintained in a humidified chamber at 37° C. containing 5% CO2. Then, all cell lines were treated with compounds for 72 hr and subsequently incubated with 0.4 mg/mL of MTT at 37° C. for 2 hr. The medium was removed, and DMSO was added to dissolve MTT precipitate. Cell proliferation was determined by measuring the optical density at 540 nm using a Thermomax microplate reader (Molecular Devices, Sunnyvale, Calif.), and the IC50 values of the benzenesulfonamide derivatives of the present invention were calculated.

[13] = system: Human Bladder Cancer TSGH cells; assay: MTT assay; format: cell-based; details: 72 hr
Procedure: as §1, §3

[14] = system: human nasopharyngeal carcinoma KB cells; assay: MTT assay; format: cell-based; details: Homo sapiens, KB; MTT assay, 72 hr
Procedure: as §1, §3

[15] = system: Human hepatoblastoma HepG2 cells; assay: MTT assay; format: cell-based; details: 72 hr, read-out: IC50 HepaG2
Procedure: as §1, §3

[16] = system: tumor cells; assay: Preliminary cytotoxicity assays (MTT, SRB), tumor cell panel; format: cell-based; details: comparison over Tables 1-4
Procedure: as §1, §3
as §2, with “After rinsing the plates with PBS and air-drying, 0.4% sulforhodamine B solution (weight per volume in 1% acetic acid) was added to each well and the plates were incubated for 10 min at room temperature. Unbound sulforhodamine B was removed with 1% acetic acid and the plates were air-dried. Cells bound with sulforhodamine B was subsequently solubilized with 10 mM Tris base (Trizma; Sigma).” left out

Cc1ccc(C)c2c1[nH]c1c(NS(=O)(=O)c3ccc(Cl)s3)cccc12 [Compound 6k, 5-Chloro-thiophene-2-sulfonic acid (5,8-dimethyl-9H-carbazol-1-yl)amide]
melting point: 232 to 234 °C
IC50 [1]: 10 µM
IC50 [2]: > 10 µM
IC50 [3]: 2.7 µM
IC50 [4]: 5.6 µM
IC50 [5]: > 10 µM
GI50 [6]: > 10 µM
GI50 [7]: 2.1 µM
GI50 [8]: 4.6 µM
IC50 [8]: > 10 µM
GI50 [9]: 1.3 µM
GI50 [10]: 6.7 µM
GI50 [11]: 6.5 µM

CCN(c1cccc2c1[nH]c1c(C)ccc(C)c12)S(=O)(=O)c1ccc(OC)cc1 [Compound 16c, N-(5,8-Dimethyl-9H-carbazol-1-yl)-N-ethyl-4-methoxybenzenesulfonamide]
melting point: 151 to 152 °C
IC50 [1]: > 10 µM
IC50 [2]: 1 µM
IC50 [3]: 0.08 µM
IC50 [4]: 0.3 µM
IC50 [5]: 0.8 µM
GI50 [6]: 0.4 µM
GI50 [7]: 0.05 µM
GI50 [8]: 0.06 µM
IC50 [8]: 0.3 µM
GI50 [9]: 0.04 µM
GI50 [10]: 0.4 µM
GI50 [11]: 0.4 µM

Cc1ccc(C)c2c1[nH]c1c(N(C)S(=O)(=O)c3ccc(Cl)s3)cccc12 [Compound 15k, 5-Chloro-thiophene-2-sulfonic acid (5,8-dimethyl-9H-carbazol-1-yl)-methyl-amide]
melting point: 179 to 181 °C
IC50 [1]: > 10 µM
IC50 [2]: > 10 µM
IC50 [3]: 1.6 µM
IC50 [4]: 3.9 µM
IC50 [5]: > 10 µM
GI50 [6]: > 10 µM
GI50 [7]: 0.3 µM
GI50 [8]: 7 µM
IC50 [8]: > 10 µM
GI50 [9]: 0.7 µM
GI50 [10]: 7.5 µM
GI50 [11]: 8.1 µM

COc1ccc(S(=O)(=O)N(C)c2cccc3c2[nH]c2c(C)ccc(C)c23)cc1 [Compound 15c, N-(5,8-Dimethyl-9H-carbazol-1-yl)-N-methyl-4-methoxybenzenesulfonamide]
melting point: 88 to 89 °C
IC50 [1]: > 10 µM
IC50 [2]: > 10 µM
IC50 [3]: > 10 µM
IC50 [4]: > 10 µM
IC50 [5]: > 10 µM
GI50 [6]: > 10 µM
GI50 [7]: > 10 µM
GI50 [8]: > 10 µM
IC50 [8]: > 10 µM
GI50 [9]: > 10 µM
GI50 [10]: > 10 µM
GI50 [11]: > 10 µM

O=[N+]([O-])c1ccc(/N=N/c2c[nH]c3c(NS(=O)(=O)c4ccc(Cl)cc4)cccc23)cc1 [Compound 7a, 4-Chloro-N-[3-(4-nitrophenylazo)-1H-indol-7-yl]benzenesulfonamide]
IC50 [12]: 5.9 µM
IC50 [13]: 3.6 µM
IC50 [14]: 4.5 µM
IC50 [15]: 9.1 µM
inhibitory activity against the tumor cells (in words) [16]: higher than that of the compound 5d
melting point: 217 to 218 °C

Cc1ccc(C)c2c1[nH]c1c(NS(=O)(=O)c3cccc(C(F)(F)F)c3)cccc12 [Compound 6j, N-(5,8-Dimethyl-9H-carbazol-1-yl)-3-trifluoromethylbenzenesulfonamide]
melting point: 217 to 218 °C
IC50 [1]: > 10 µM
IC50 [2]: > 10 µM
IC50 [3]: > 10 µM
IC50 [4]: > 10 µM
IC50 [5]: > 10 µM
GI50 [6]: > 10 µM
GI50 [7]: > 10 µM
GI50 [8]: > 10 µM
IC50 [8]: > 10 µM
GI50 [9]: > 10 µM
GI50 [10]: > 10 µM
GI50 [11]: > 10 µM

COc1ccc(S(=O)(=O)N(c2cccc3c2[nH]c2c(C)ccc(C)c23)C(C)C)cc1 [Compound 18c, N-(5,8-Dimethyl-9H-carbazol-1-yl)-N-isopropyl-4-methoxybenzenesulfonamide]
melting point: 222 to 224 °C
IC50 [1]: > 10 µM
IC50 [2]: > 10 µM
IC50 [3]: 1.6 µM
IC50 [4]: 0.7 µM
IC50 [5]: > 10 µM
GI50 [6]: 9.5 µM
GI50 [7]: 0.2 µM
GI50 [8]: 4 µM
IC50 [8]: 9.4 µM
GI50 [9]: 0.5 µM
GI50 [10]: 0.5 µM
GI50 [11]: 7.8 µM

COc1ccc(S(=O)(=O)Nc2cccc3c2[nH]c2ccccc23)cc1 [Compound 21a, N-(9H-Carbazol-1-yl)-4-methoxybenzenesulfonamide]
melting point: 204 to 206 °C
IC50 [1]: 1.7 µM
IC50 [2]: 0.07 µM
IC50 [3]: 0.08 µM
IC50 [4]: 0.07 µM
IC50 [5]: 4.4 µM
GI50 [6]: 0.07 µM
GI50 [7]: 0.03 µM
GI50 [8]: 0.2 µM
IC50 [8]: > 10 µM
GI50 [9]: 0.04 µM
GI50 [10]: 0.01 µM
GI50 [11]: 0.9 µM

O=S(=O)(Nc1cccc2c1[nH]c1ccccc12)c1cccc(C(F)(F)F)c1 [Compound 21b, N-(9H-Carbazol-1-yl)-3-trifluoromethylbenzenesulfonamide]
melting point: 188 to 190 °C
IC50 [1]: > 10 µM
IC50 [2]: > 10 µM
IC50 [3]: > 10 µM
IC50 [4]: > 10 µM
IC50 [5]: > 10 µM
GI50 [6]: > 10 µM
GI50 [7]: > 10 µM
GI50 [8]: > 10 µM
IC50 [8]: > 10 µM
GI50 [9]: > 10 µM
GI50 [10]: > 10 µM
GI50 [11]: > 10 µM

CCCN(c1cccc2c1[nH]c1c(C)ccc(C)c12)S(=O)(=O)c1ccc(OC)cc1 [Compound 17c, N-(5,8-Dimethyl-9H-carbazol-1-yl)-N-propyl-4-methoxybenzenesulfonamide]
melting point: 60 to 62 °C
IC50 [1]: 10 µM
IC50 [2]: > 10 µM
IC50 [3]: 1.9 µM
IC50 [4]: 0.8 µM
IC50 [5]: > 10 µM
GI50 [6]: 6.1 µM
GI50 [7]: 0.3 µM
GI50 [8]: 3.5 µM
IC50 [8]: 8.6 µM
GI50 [9]: 0.8 µM
GI50 [10]: 0.6 µM
GI50 [11]: 5.9 µM

Cc1ccc(C)c2c1[nH]c1c(N(C)S(=O)(=O)c3cccc(C(F)(F)F)c3)cccc12 [Compound 15j, N-(5,8-Dimethyl-9H-carbazol-1-yl)-N-methyl-3-trifluoromethylbenzenesulfonamide]
melting point: 192 to 194 °C
IC50 [1]: > 10 µM
IC50 [2]: > 10 µM
IC50 [3]: > 10 µM
IC50 [4]: 10 µM
IC50 [5]: > 10 µM
GI50 [6]: 7.8 µM
GI50 [7]: 5.6 µM
GI50 [8]: > 10 µM
IC50 [8]: > 10 µM
GI50 [9]: > 10 µM
GI50 [10]: 7.8 µM
GI50 [11]: > 10 µM

Reference: patent publication US8173693B2, “Benzenesulfonamide derivatives and pharmaceutical composition thereof” (Purzer Pharmaceutical Co., Ltd., priority 2010, dated 2012)
